In patent US9795595B2, “Methods for treating cancer” (Boston Biomedical, Inc., priority 2014, dated 2017):

What was measured:
cancer stem cell markers = experiment: Cancer stem cell markers in biopsied tumor tissue of study patients; assay type: in vivo, human
Method: Escalating doses from 10 mg to 450 mg once daily were administered to 26 patients. Maximum tolerated dose (MTD) was not reached. […] Of 20 evaluable patients, 11 (55%) had stable disease (SD) with a median time to progression of 16 weeks.
Encouraging signs of anti-tumor activity have been observed in pretreated patients with advanced cancer.

nuclear STK33 = experiment: Needle biopsy tumor samples before and after 28 days treatment, phase I patients: nuclear STK33 staining; assay type: in vivo, human; conditions: after 28 days treatment, patient with positive NANOG and STK33 staining
Method: (§1) Understanding the clinical relevance of the stemness markers and identifying predictive biomarkers assists clinical development by selecting patients that will most likely to derive clinical benefit from treatment with the Compound of the Invention. In current studies, we studied stemness gene marker in biopsy tumor as well as archival tumor samples from patients. […] Archival tissue from patients receiving the Compound of the Invention was analyzed via immunohistochemistry to determine whether response to the drug was correlated with either NANOG or STK33. […] Importantly, 90.9% of the tumors with STK33 nuclear staining were also positive for nuclear NANOG staining and there was a significant correlation between nuclear STK33 and nuclear NANOG (P<0.0022).

nuclear NANOG = experiment: Needle biopsy tumor samples before and after 28 days treatment, phase I patients: nuclear NANOG staining; assay type: in vivo, human; conditions: after 28 days treatment, patient with positive NANOG and STK33 staining
Method: as §1

Advanced Solid Tumors = experiment: Dose escalation study of the Compound of the Invention in adult patients with advanced solid tumors (Phase I); assay type: in vivo
From the text: In this study, the Compound of the Invention was given orally, continuously, in 28-day cycles until disease progression, unacceptable toxicity, or other discontinuation criteria were met.

CCN(CC)CCNC(=O)c1c(C)[nH]c(/C=C2\C(=O)Nc3ccc(-c4csc(-c5ccccc5)n4)cc32)c1C [Compound of the Invention]
Inhibition of cancer stem cell markers (cancer stem cell markers): inhibition of cancer stem cell markers was observed
Reduction of nuclear STK33 (nuclear STK33): potent in reducing nuclear NANOG and STK33
Reduction of nuclear NANOG (nuclear NANOG): potent in reducing nuclear NANOG
Patients with tumor regression and/or prolonged stable disease (≧16 weeks), percent (Advanced Solid Tumors): 50%
Grade 3 diarrhea, number of subjects (Advanced Solid Tumors; 450 mg once daily): 2 subjects
Number of Patients with minor regression or SD ≧16 wks. (Advanced Solid Tumors; Colorectal Cancer, 5 patients evaluable): 3
Number of Patients with minor regression or SD ≧16 wks. (Advanced Solid Tumors; Gastric/GEJ Adenocarcinoma, 1 patient evaluable): 1
Number of Patients with minor regression or SD ≧16 wks. (Advanced Solid Tumors; Head & Neck Cancer, 2 patients evaluable): 2
Number of Patients with minor regression or SD ≧16 wks. (Advanced Solid Tumors; Hepatocellular Carcinoma, 2 patients evaluable): 1
Number of Patients with minor regression or SD ≧16 wks. (Advanced Solid Tumors; Non-Small Cell Lung Cancer, 1 patient evaluable): 1
Number of Patients with minor regression or SD ≧16 wks. (Advanced Solid Tumors; Pancreatic Neuroendocrine, 1 patient evaluable): 1
Number of Patients with minor regression or SD ≧16 wks. (Advanced Solid Tumors; Renal Cell Carcinoma, 1 patient evaluable): 1
Maximum tolerated dose (MTD) (Advanced Solid Tumors; escalating doses 10 mg to 450 mg once daily, oral, 28-day cycles, 26 patients): not reached
Adverse events (Advanced Solid Tumors; including grade 1, 2 diarrhea, abdominal cramping, nausea, anorexia): mild GI adverse events
Patients with stable disease (SD), number (Advanced Solid Tumors; of 20 evaluable patients): 11
Patients with stable disease (SD), percent (Advanced Solid Tumors; of 20 evaluable patients): 55%
Patients with tumor regression and/or prolonged stable disease (≧16 weeks), number (Advanced Solid Tumors; of those patients with SD): 10
Recommended Phase II Dose (RP2D) (Advanced Solid Tumors; once daily, oral): 300 mg
Pharmacokinetic exposure relative to predicted therapeutic level (Advanced Solid Tumors; oral, once daily): well above the predicted therapeutic level
Plasma concentration versus dose (Advanced Solid Tumors; oral, once daily): dose-dependent increases in plasma concentration up to 300 mg once daily
Tolerability (Advanced Solid Tumors; oral, once daily, 10 mg to 450 mg): well tolerated
Overall survival (Advanced Solid Tumors; patients with high levels of nuclear STK33 in archival tissue, P<0.0097): improved
Median progression free survival (PFS) (Advanced Solid Tumors; patients with high levels of nuclear STK33 in archival tissue, P<0.0273): improved
Median time to progression (Advanced Solid Tumors; patients with stable disease): 16 weeks
